Measurements from paper PMC5580926 (Antiviral therapy, 2016).
Where two headings read alike, the source gives them in different places.

Key:
in vitro = format: cell-based; conditions: human
[1] = ATPlite cytotoxicity assay under Con1b replicon efficacy assay conditions; format: cell-based; conditions: human
Con1b replicon = Con1b replicon efficacy assay; format: cell-based, HCV; conditions: Hepatitis C virus, read-out: EC50, Con1b replicon
HCVcc-Luc (2a) = assay: microbe, parasite or virus in culture; format: cell-based, HCV; conditions: read-out: EC50, HCVcc-Luc (2a)

## C[C@@]1(O)[C@H](O)[C@@H](CO)O[C@H]1n1ccc(N)nc1=O [2′-C-methylcytidine]
In vitro
  CC50: > 100 µM
[1]; Con1b replicon cell line
  CC50: > 100 µM
Con1b replicon
  EC50: 1610 ± 70 nM
HCVcc-Luc (2a); Hepatitis C virus
  EC50: 1400 ± 400 nM

## CN1CCN([C@@H](c2ccccc2)c2ccc(Cl)cc2)CC1 [(S)-CCZ, (S)-chlorcyclizine]
HCVcc-Luc (2a); single agent, mean of ≥3 independent tests ±SEM
  EC50: 24 ± 9 nM

## CC(C)(C)NC(=O)N[C@H](C(=O)N1C[C@H]2[C@@H]([C@H]1C(=O)NC(CC1CCC1)C(=O)C(N)=O)C2(C)C)C(C)(C)C (some centres unmarked) [Boceprevir, boceprevir]
In vitro
  CC50: > 100 µM
[1]
  CC50: > 100 µM
Con1b replicon
  EC50: 620 ± 10 nM

## COC(=O)N[C@H](C(=O)N1CCC[C@H]1c1nc(-c2ccc(-c3ccc(-c4c[nH]c([C@@H]5CCCN5C(=O)[C@@H](NC(=O)OC)C(C)C)n4)cc3)cc2)c[nH]1)C(C)C [Daclatasvir, daclatasvir]
In vitro
  CC50: 45 ± 1 µM
[1]; Con1b replicon cell line
  CC50: 22 ± 1 µM
Con1b replicon
  EC50: 0.04 ± 0.02 nM
HCVcc-Luc (2a); Hepatitis C virus
  EC50: 0.04 ± 0.02 nM

## CC(C)OC(=O)[C@H](C)N[P@](=O)(OC[C@H]1O[C@@H](n2ccc(=O)[nH]c2=O)[C@](C)(F)[C@@H]1O)Oc1ccccc1 [Sofosbuvir, sofosbuvir]
In vitro
  CC50: > 100 µM
[1]
  CC50: > 100 µM
Con1b replicon
  EC50: 400 ± 100 nM
HCVcc-Luc (2a); Hepatitis C virus
  EC50: 60 ± 2 nM

## CCC[C@H](NC(=O)[C@@H]1[C@H]2CCC[C@H]2CN1C(=O)[C@@H](NC(=O)[C@@H](NC(=O)c1cnccn1)C1CCCCC1)C(C)(C)C)C(=O)C(=O)NC1CC1 [Telaprevir, telaprevir]
In vitro
  CC50: > 100 µM
[1]; Con1b replicon cell line
  CC50: 97.8 ± 0.9 µM
Con1b replicon
  EC50: 550 ± 50 nM
HCVcc-Luc (2a); Hepatitis C virus
  EC50: 200 ± 40 nM
